Reference: paper PMC9050923, “6,N^2-Diaryl-1,3,5-triazine-2,4-diamines: synthesis, antiproliferative activity and 3D-QSAR modeling” (RSC Advances, 2020)

Key:
MDA-MB231 = test: MTT assay, MDA-MB231 breast cancer cells; assay type: cell-based; settings: Homo sapiens, MDA-MB-231; for viability at 10 µM: 72 h after the treatment, MTT, mean of three independent experiments, read-out: Percentage of cell viability MDA-MB231
Outline: (§1)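 Cells seeded 24 h at 37 °C, 5% CO2, then treated 72 h with a concentration range; single-point screen at 10 μM gave % viability. MTT (0.5 mg/mL, 4 h), DMSO-solubilised, A570; GI50 from sigmoidal curves, mean of three experiments.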

SKBR-3 = test: MTT assay, SKBR-3 breast cancer cells; assay type: cell-based; settings: Homo sapiens, SK-BR-3; 10 μM, 72 h after the treatment, MTT, mean of three independent experiments; read-out: Percentage of cell viability SKBR-3
Outline: as §1

MCF-7 = test: MTT assay, MCF-7 breast cancer cells; assay type: cell-based; settings: Homo sapiens, MCF7, 10 μM, 72 h after the treatment, mean of three independent experiments, read-out: Percentage of cell viability MCF-7
Outline: as §1

For `Nc1nc(Nc2ccccc2)nc(-c2ccc(Cl)cc2)n1` [Compound 34, 6-(4-Chlorophenyl)-N^2-phenyl-1,3,5-triazine-2,4-diamine], which viability at 10 µM (MDA-MB231) is on record?
Its viability at 10 µM is 81%.

And the viability at 10 µM (SKBR-3)?
The viability at 10 µM was 100%.

What about the viability at 10 µM (MCF-7) of the same molecule?
Its viability at 10 µM is 100%.

And the melting point?
Its melting point is 154 to 156 °C.

For `COc1ccc(Nc2nc(N)nc(-c3ccc(OC)cc3)n2)cc1` [Compound 71, N ^2,6-Bis(4-methoxyphenyl)-1,3,5-triazine-2,4-diamine], which viability at 10 µM (MDA-MB231) is on record?
The viability at 10 µM was 56%.

What about the GI50 (MDA-MB231; −log[GI50], MDA-MB231, read-out: Experimental pGI50 (converted)) of the same molecule?
Its GI50 is 14.1 µM.

And the viability at 10 µM (SKBR-3)?
Its viability at 10 µM is 93%.

And the viability at 10 µM (MCF-7)?
The viability at 10 µM was 95%.

What about the melting point of the same molecule?
The melting point was 163 to 165 °C.

Which viability at 10 µM (MDA-MB231) does the source give for `COc1ccc(Nc2nc(N)nc(-c3ccc(F)cc3)n2)cc1` [Compound 30, 6-(4-Fluorophenyl)-N^2-(4-methoxyphenyl)-1,3,5-triazine-2,4-diamine] here?
Its viability at 10 µM is 74%.

What about the viability at 10 µM (SKBR-3) of the same molecule?
The viability at 10 µM was 90%.

And the viability at 10 µM (MCF-7)?
The viability at 10 µM was 92%.

And the melting point?
Its melting point is 158 to 160 °C.

Which viability at 10 µM (MDA-MB231) does the source give for `Nc1nc(Nc2ccc(F)cc2)nc(-c2ccc(OCc3ccccc3)cc2)n1` [Compound 111, 6-(4-(Benzyloxy)phenyl)-N^2-(4-fluorophenyl)-1,3,5-triazine-2,4-diamine] here?
The viability at 10 µM was 69%.

And the viability at 10 µM (SKBR-3)?
Its viability at 10 µM is 84%.

What about the viability at 10 µM (MCF-7) of the same molecule?
The viability at 10 µM was 89%.

What about the melting point of the same molecule?
Its melting point is 177 to 179 °C.

Which viability at 10 µM (MDA-MB231) does the source give for `Nc1nc(Nc2ccc(F)cc2)nc(-c2ccc(C(F)(F)F)cc2)n1` [Compound 84, N ^2-(4-Fluorophenyl)-6-(4-(trifluoromethyl)phenyl)-1,3,5-triazine-2,4-diamine] here?
The viability at 10 µM was 95%.

And the viability at 10 µM (SKBR-3)?
Its viability at 10 µM is 98%.

What about the viability at 10 µM (MCF-7) of the same molecule?
Its viability at 10 µM is 100%.

And the melting point?
Its melting point is 150 to 152 °C.

Which viability at 10 µM (MDA-MB231) does the source give for `Nc1nc(Nc2ccccc2F)nc(-c2ccccc2)n1` [Compound 2, N ^2-(2-Fluorophenyl)-6-phenyl-1,3,5-triazine-2,4-diamine] here?
Its viability at 10 µM is 82%.

What about the viability at 10 µM (SKBR-3) of the same molecule?
Its viability at 10 µM is 83%.

What about the viability at 10 µM (MCF-7) of the same molecule?
The viability at 10 µM was 99%.

What about the melting point of the same molecule?
Its melting point is 156 to 158 °C.
